Assay results taken from patent publication US7858635B2 (priority 2005, dated 2010).
Like-named read-outs stand apart in the source and are kept apart here.

How the values were obtained:
[1] = molecular target: T1, M1 muscarinic receptor (Homo sapiens, UniProt P11229); assay: Functional mobilization of intracellular calcium (FLIPR, Fluo-3), M1-CHO cells; assay type: cell-based; conditions: for Emax: read-out: M1 Efficacy; for M1 Activity: M1-CHO cells, calcium mobilization
T1 construct: expressed in transfected cells; host or cells: CHO cells (M1-CHO, under zeocin and G418 selection)
T1 sequence (P11229 1-460): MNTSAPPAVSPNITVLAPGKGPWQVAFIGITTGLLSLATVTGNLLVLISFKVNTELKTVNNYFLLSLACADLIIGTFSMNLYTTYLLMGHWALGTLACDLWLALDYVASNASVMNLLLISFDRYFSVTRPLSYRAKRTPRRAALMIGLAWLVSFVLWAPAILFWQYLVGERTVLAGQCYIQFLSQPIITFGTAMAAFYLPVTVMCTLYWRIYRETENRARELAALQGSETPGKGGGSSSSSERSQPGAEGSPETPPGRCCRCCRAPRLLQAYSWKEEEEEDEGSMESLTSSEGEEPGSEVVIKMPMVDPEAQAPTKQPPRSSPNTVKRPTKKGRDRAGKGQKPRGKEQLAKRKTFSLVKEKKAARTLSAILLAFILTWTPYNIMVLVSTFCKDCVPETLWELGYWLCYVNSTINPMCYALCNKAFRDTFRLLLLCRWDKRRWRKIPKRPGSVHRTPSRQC
How it was run: (§1)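 CHO lines stably carrying the muscarinic subtype, dye-loaded with Fluo-3 at 37° C for 60-90 min, receive test compound in 0.5% DMSO. Agonist effects are read directly; antagonist effects against carbachol at EC80 after 15 min pre-incubation.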

[2] = molecular target: T2, M4 muscarinic receptor (Homo sapiens, UniProt P08173); assay: Functional mobilization of intracellular calcium (FLIPR, Fluo-3), M4-CHO cells; assay type: cell-based; conditions: for Emax: read-out: M4 Efficacy; for M4 Activity: M4-CHO cells, calcium mobilization
T2 construct: expressed in transfected cells; host or cells: CHO cells (M4-CHO, under puromycin, zeocin and blasticidin selection)
T2 sequence (P08173 1-479): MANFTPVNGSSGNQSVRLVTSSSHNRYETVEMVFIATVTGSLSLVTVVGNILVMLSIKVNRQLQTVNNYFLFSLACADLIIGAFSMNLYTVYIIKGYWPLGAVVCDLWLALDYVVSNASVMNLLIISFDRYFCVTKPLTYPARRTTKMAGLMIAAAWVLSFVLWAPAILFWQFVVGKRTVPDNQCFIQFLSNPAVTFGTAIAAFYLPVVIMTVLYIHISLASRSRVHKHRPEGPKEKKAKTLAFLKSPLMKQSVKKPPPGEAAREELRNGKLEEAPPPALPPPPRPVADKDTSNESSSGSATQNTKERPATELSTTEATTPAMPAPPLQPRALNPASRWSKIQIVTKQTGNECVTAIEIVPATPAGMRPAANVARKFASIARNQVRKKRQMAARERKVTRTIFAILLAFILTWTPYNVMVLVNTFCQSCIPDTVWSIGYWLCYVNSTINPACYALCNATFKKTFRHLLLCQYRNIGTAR
How it was run: as §1

[3] = compound nos. 1-454, 100% efficacy is the maximum response obtained with the Carbachol control

Question: For `CC(=O)NC1CC2(CCN(C3CC4CCC3C4)CC2)c2ccccc21` (stereo not drawn) [compound 291], which Emax [1, 3] is on record?
Answer: 65 to 85%

Question: What about the “M1 Activity” value ([1]; compound nos. 1-454) of the same compound?
Answer: ++ (activity was measured to be between 0.7 μM and 3.0 μM)

Question: And the Emax [2, 3]?
Answer: 55 to 70%

Question: What about the “M4 Activity” value ([2]; compound nos. 1-454) of the same compound?
Answer: + (activity was measured to be greater than or equal to 4.0 μM)

Question: For `Cc1ccc2c(c1)C1(CCN(C3CC4CCC3C4)CC1)CN2C(=O)c1ccno1` (stereo not drawn) [compound 292], which Emax [1, 3] is on record?
Answer: 65 to 85%

Question: What about the “M1 Activity” value ([1]; compound nos. 1-454) of the same compound?
Answer: ++ (activity was measured to be between 0.7 μM and 3.0 μM)

Question: What about the Emax [2, 3] of the same compound?
Answer: 55 to 70%

Question: What about the “M4 Activity” value ([2]; compound nos. 1-454) of the same compound?
Answer: + (activity was measured to be greater than or equal to 4.0 μM)

Question: Which results are given for `COCCOC(=O)N1CCC(N2CCC3(CC2)CN(C(C)=O)c2ccc(C)cc23)CC1` [compound 293]?
Answer: Emax [1, 3]: > 85%; M1 Activity ([1]; compound nos. 1-454): ++ (activity was measured to be between 0.7 μM and 3.0 μM); Emax [2, 3]: > 70%; M4 Activity ([2]; compound nos. 1-454): +++ (activity was measured to be less than or equal to 0.1 μM)

Question: Which results are given for `CCCOC(=O)N1C2CCC1CC(N1CCC3(CC1)CN(S(C)(=O)=O)c1ccc(F)cc13)C2` (stereo not drawn) [compound 294]?
Answer: Emax [1, 3]: > 85%; M1 Activity ([1]; compound nos. 1-454): ++ (activity was measured to be between 0.7 μM and 3.0 μM); Emax [2, 3]: 55 to 70%; M4 Activity ([2]; compound nos. 1-454): ++ (activity was measured to be between 0.1 μM and 4.0 μM)

Question: `CCOC(=O)N1CCC(N2CCC3(CC2)CN(C(C)=O)c2ccc(-c4ccc(C(F)(F)F)cc4)cc23)CC1` [compound 295] was tested. Which Emax [1, 3] did it give?
Answer: 65 to 85%

Question: And the “M1 Activity” value ([1]; compound nos. 1-454)?
Answer: +++ (activity was measured to be less than or equal to 0.7 μM)

Question: And the Emax [2, 3]?
Answer: 55 to 70%

Question: And the “M4 Activity” value ([2]; compound nos. 1-454)?
Answer: +++ (activity was measured to be less than or equal to 0.1 μM)

Question: Which Emax [1, 3] does the source give for `CCOC(=O)N1C2CCC1CC(N1CCC3(CC1)CN(C(=O)NC(C)C)c1ccc(F)cc13)C2` (stereo not drawn) [compound 296] here?
Answer: 65 to 85%

Question: What about the “M1 Activity” value ([1]; compound nos. 1-454) of the same compound?
Answer: + (activity was measured to be greater than or equal to 3.0 μM)

Question: And the Emax [2, 3]?
Answer: 55 to 70%

Question: And the “M4 Activity” value ([2]; compound nos. 1-454)?
Answer: + (activity was measured to be greater than or equal to 4.0 μM)

Question: Which “M1 Efficacy” value [1, 3] does the source give for `CCCOC(=O)N1C2CCC1CC(N1CCC3(CC1)CN(C(=O)O[C@@H]1CCOC1)c1ccc(F)cc13)C2` (stereo partly drawn) [compound 297] here?
Answer: ++ (efficacy was calculated to be between 85% and 65%)

Question: And the “M1 Activity” value ([1]; compound nos. 1-454)?
Answer: + (activity was measured to be greater than or equal to 3.0 μM)

Question: What about the “M4 Efficacy” value [2, 3] of the same compound?
Answer: ++ (efficacy was calculated to be between 70% and 55%)

Question: What about the “M4 Activity” value ([2]; compound nos. 1-454) of the same compound?
Answer: + (activity was measured to be greater than or equal to 4.0 μM)

Question: Which results are given for `CCOC(=O)N1C2CCC1CC(N1CCC3(CC1)CN(C(=O)Oc1ccc(F)cc1)c1ccc(F)cc13)C2` (stereo not drawn) [compound 298]?
Answer: M1 Activity ([1]; compound nos. 1-454): + (activity was measured to be greater than or equal to 3.0 μM); Emax [1]: < 65%; M4 Activity ([2]; compound nos. 1-454): + (activity was measured to be greater than or equal to 4.0 μM); Emax [2]: 55 to 70%

Question: For `Fc1ccc2c(c1)C1(CCN(C3CCOCC3)CC1)CN2` [compound 299], which Emax [1, 3] is on record?
Answer: 65 to 85%

Question: What about the “M1 Activity” value ([1]; compound nos. 1-454) of the same compound?
Answer: + (activity was measured to be greater than or equal to 3.0 μM)

Question: What about the Emax [2, 3] of the same compound?
Answer: 55 to 70%

Question: And the “M4 Activity” value ([2]; compound nos. 1-454)?
Answer: + (activity was measured to be greater than or equal to 4.0 μM)

Question: What does the source list for `Fc1ccc2c(c1)C1(CCN(C[C@H]3C[C@H]4CC[C@H]3O4)CC1)CN2` [compound 300]?
Answer: Emax [1, 3]: 65 to 85%; M1 Activity ([1]; compound nos. 1-454): ++ (activity was measured to be between 0.7 μM and 3.0 μM); Emax [2, 3]: < 55%; M4 Activity ([2]; compound nos. 1-454): + (activity was measured to be greater than or equal to 4.0 μM)

Question: How did the Emax [1, 3] turn out when `O=C(O[C@H]1CCOC1)N1C2CCC1CC(N1CCC3(CC1)C(=O)Nc1ccccc13)C2` (stereo partly drawn) [compound 301] was run?
Answer: < 65%

Question: What about the “M1 Activity” value ([1]; compound nos. 1-454) of the same compound?
Answer: + (activity was measured to be greater than or equal to 3.0 μM)

Question: And the Emax [2, 3]?
Answer: < 55%

Question: And the “M4 Activity” value ([2]; compound nos. 1-454)?
Answer: + (activity was measured to be greater than or equal to 4.0 μM)

Question: Which results are given for `CCCOC(=O)N1C2CCC1CC(N1CCC3(CC1)CN(C(=O)C1CCC1)c1ccc(F)cc13)C2` (stereo not drawn) [compound 302]?
Answer: Emax [1, 3]: < 65%; M1 Activity ([1]; compound nos. 1-454): + (activity was measured to be greater than or equal to 3.0 μM); Emax [2, 3]: < 55%; M4 Activity ([2]; compound nos. 1-454): + (activity was measured to be greater than or equal to 4.0 μM)
